We go through one compound from patent publication US10912741B2, “Prevention of liver cancer with safranal-based formulations” (United Arab Emirates University, priority 2019, dated 2021).

Series [1] can be described thus: Cell viability assay (CellTiter-Glo). Format: cell-based, human. The following applies: human, HepG2 cells, 1 mM safranal, read-out: reduction of cell viability. On the procedure: (§1) HepG2, were cultured in RPMI 1640 medium (HyClone, USA) and 1% of 100 U/ml penicillin and 100 ug/ml streptomycin (Sigma, USA) supplemented with 10% fetal bovine serum (Sigma, USA) at 37° C. in a humidified 5% CO2 atmosphere. Cells were sub-cultured each 4-6 days using trypsin 0.25% (Hyclone, USA).
(§2) HepG2 cells were seeded in 96-well plates at the density of 10000 cells/well and grown in 100 uL of complete growth medium. Complete growth medium was replaced by serum-free medium after cells were allowed to attach for 24 hours; after which cells were incubated for at least 12 hours. Cells were incubated for 24 hours after treatment with various concentrations of safranal (1 mM, 0.3 mM, 0.1 mM, 0.03 mM, 0.01 mM) prepared from 10 mM stock solution. After incubation period, viability of HepG2 cells was assessed using CellTiter-Glo luminescent cell viability assay kit according to manufacturer's instruction (Promega, USA).
Background: Cellular ATP, detected with luciferase, serves as a proxy for viable cell number.

The test system of a further series is HepG2 cells. Kind of series: Cell viability assay (CellTiter-Glo). The series is classed as cell-based, human. As to conditions: 0.01, 0.03, 0.1, 0.3, 1 mM, 24 hours. On the procedure:
as §1, §2

Regarding `CC1=C(C=O)C(C)(C)CC=C1` [Safranal, 2,6,6-trimethylcyclohexa-1,3-diene-1-carbaldehyde], the cytotoxicity at 24 h, 1 mM in series [1] was approximately 70%. Further, the HepG2 cells viability entry in the series on HepG2 cells is given as “significant dose-dependent reduction”.
